Laboratory results: US20150038415A1, “PROCESS FOR THE MANUFACTURING OF A DRUG DELIVERY SYSTEM BASED ON A POLYMER COMPRISING A DISPERSED BIOACTIVE AGENT” (DSM IP Assets B.V., priority 2011, published 2015)
Entries after “also recorded” stand apart in the source; their conditions may differ.

Test system: Nb2 (rat lymphoma) cells
Assay: Bioactivity of released rHGH by Nb2 cell proliferation assay
Assay type: cell-based
Procedure: Bioactivity of rHGH present in release samples was assessed by measuring its influence on the proliferation of Nb2 (rat lymphoma) cells.^1 1 Bozzola, M. et. al. Evaluation of growth hormone bioactivity using the Nb2 cell bioassay in children with growth disorders. J. Endocrinol Invest.1998, 21, 765-770
The method used is described below:^2 2 Tanaka. T. et. al. A new sensitive and specific bioassay for lactogenic hormones: measurement of prolactin and growth hormone in human serum. J. Clin. Endocrinol. Metab.1980, 51, 1058-1063 […]
Cells were then counted with a Guava Easycyte (Millipore) capillary cytometer using Viacount reagent (Millipore) to stain cells, according to the recommendations of the manufacturer. […]
Samples originating from the release experiments were diluted in incubation medium to reach an expected (according to HPLC quantification) concentration of rHGH between 80 and 280 pg/mL(concentration range in which growth of Nb2 cells is rHGH concentration-dependent). […]
After incubation, cells were stained with 50 uL Viacount reagent and viable cells were counted by capillary cytometry.
Bioactivity of rHGH released from the fibers was measured through use of the cell-proliferation assay described above. Release samples were introduced to the cell culture medium and the effect of rHGH on cell proliferation was measured via cell counting with capillary cytometry.

Substance: rHGH: lyophilized powder of recombinant human growth hormone, dispersed in PEA-III-Ac-Bz film cut into fibers
- Bioactivity of rHGH released from the fibers (cell proliferation assay) (rHGH released from PEA-III-Ac-Bz fibers into release medium (PBS pH 7.4 with BSA and penicillin) at 37° C., Nb2 cells incubated 72 hours): retained; also recorded: bioactive; also recorded: retains its bioactivity
- Cell response to release samples (cell counting with capillary cytometry) (release samples taken at 1 h, 3 h, 6 h, 24 h & 48 h from PEA-III-Ac-Bz fibers with approximately 1-2 wt % rHGH): positive cell response
